# Data reported in US12319946B2, “Methods for producing modified bacteria for production of nitroaromatics” (priority 2018, dated 2025).
# Entries after “also recorded” stand apart in the source; their conditions may differ.
# Columns and labels:
# [1] = test system: E. coli BL21 Gold cells expressing TB14, BsNOS and GDH; experiment: Whole-cell biotransformation (whole cell nitration system, Example 2/278); format: cell-based, Escherichia coli; conditions: TB medium, analogue fed as substrate
# Description: For analytical analysis, an HPLC column was kept at 40° C., water with 0.1% formic acid was used as solvent A and acetonitrile with 0.1% formic acid was used as solvent B. The column was eluted first with 1% solvent B for 1 min and then with a linear gradient of 1-20% solvent B in 8 min, followed by another linear gradient of 20-99% solvent B in 2 min. The column was further cleaned with 99% solvent B for 2 min and then re-equilibrated with 1% solvent B for 2 min. The flow rate was set as 1 ml/min, and the products were detected at […] with a PDA detector.
# E. coli BL21 Gold cells containing pETDuet and pET28b derived plasmids were grown from glycerol stock overnight in 5 mL Luria broth with 0.1 mg/mL ampicillin and 0.05 mg/mL kanamycin (37° C., 250 rpm). The pre-culture was used to inoculate 100 mL of Terrific broth medium (0.1 mg/mL ampicillin and 0.05 mg/mL kanamycin) in a 500 mL flask; this culture was incubated at 37° C., 250 rpm to OD600=0.6-0.8. The cultures were cooled on water-ice mixture and induced with 0.5 mM IPTG, Expression was conducted at 18° C., 250 rpm, for 20 h. For the culture of E. coli BL21 Gold cells containing pACYCDuet and pET28b derived plasmids, 0.05 mg/mL chloramphenicol was used instead of 0.05 mg/mL kanamycin. The cultures were then harvested and resuspended to OD600=30 in test medium, Aliquots of the cell suspension were used in the whole cell transformation. To a test tube was added 5 mL cell suspension, 25 μL 100 mM L-Trp or L-Trp analogues, and 25 μL 100 mM L-Arg when necessary. The mixture was then incubated at different conditions. The reactions were quenched by adding equal volume of methanol and the resulting mixture was aliquoted and transferred to a microcentrifuge tube and centrifuged at 14,000 rpm for 10 minutes. The supernatant was transferred to an HPLC vial and analyzed by LC-MS.
# [2] = test system: E. coli BL21-GOLD (DE3) carrying Nitrotrp pathways (TB14, BsNOS, GDH); format: cell-based, Escherichia coli; conditions: for nitration of fed analog by E. coli-II: 5 mM analog fed to fermentation medium of E. coli-II
# [3] = biological target: T1, TnaA (Escherichia coli, UniProt P0A853); experiment: TnaA assay (in vitro, recombinant tryptophanase); format: biochemical, E. coli; conditions: 0.1 μM purified TnaA, 0.5 mM substrate, 37° C., 10 min
# T1 construct: made in house; host or cells: E. coli BL21-GOLD (DE3)
# Description: The reactions contained 0.1 μM purified TnaA and 0.5 mM substrate and incubated at 37° C. for 10 min. No 4-nitro indole was produced in the enzyme reaction.
# PCR amplicons were analyzed by agarose gel and extracted with GeneJET Gel Extraction Kit (Thermo). Purified PCR products and pET28b were digested with corresponding restriction enzymes, purified and then ligated to create expression constructs. Insert in the construct was sequenced to exclude potential errors introduced during PCR amplification and gene manipulation. Recombinant TnaA was prepared in E. coli BL21-GOLD (DE3). The enzyme assay (0.1 mL) contained 100 mM potassium phosphate buffer (pH 8.3), 0.2 mM pyridoxal 5-phosphate and 0.1 μM purified tnaA. The reaction mixtures were pre-warmed at 37° C. for 5 minutes, and initiated by adding 0.5 mM 1-Trp or Nitrotrp as substrate. After 10 minutes, the reactions were quenched by mixing well with 0.2 mL of methanol. After centrifugation at 14,000 rpm for 30 minutes, the supernatant was subject to HPLC analysis. All experiments were independently repeated at least twice.
# T1 sequence (P0A853 whole entry): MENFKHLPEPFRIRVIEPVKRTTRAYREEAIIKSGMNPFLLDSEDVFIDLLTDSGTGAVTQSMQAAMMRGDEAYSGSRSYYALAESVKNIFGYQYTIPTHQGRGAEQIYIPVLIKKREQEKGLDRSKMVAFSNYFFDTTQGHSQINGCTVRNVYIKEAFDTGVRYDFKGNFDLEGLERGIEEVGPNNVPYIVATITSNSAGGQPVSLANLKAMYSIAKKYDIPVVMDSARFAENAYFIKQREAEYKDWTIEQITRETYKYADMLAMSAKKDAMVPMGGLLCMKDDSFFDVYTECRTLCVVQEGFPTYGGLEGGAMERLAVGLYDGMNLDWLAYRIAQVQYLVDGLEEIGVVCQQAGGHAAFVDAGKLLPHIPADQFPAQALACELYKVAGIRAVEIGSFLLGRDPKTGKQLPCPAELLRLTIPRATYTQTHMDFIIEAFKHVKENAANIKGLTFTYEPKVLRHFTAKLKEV
SMILES,nitration of tryptophan analogue by whole cell nitration system [1],nitration of fed analog by E. coli-II [2],conversion rates in whole cell-based nitration [1],conversion/decomposition by recombinant TnaA [3],nitration activity of the strain toward substrate (rank) ([2]; 5 mM analog fed to E. coli-II)
"N[C@@H](Cc1c[nH]c2cccc(F)c12)C(=O)O [Example 4-F-Trp, 4-F-Trp]",successfully nitrated,nitrated,–,–,–
"Cc1cccc2[nH]cc(C[C@H](N)C(=O)O)c12 [Example 4-Me-Trp, 4-Me-Trp]",successfully nitrated,nitrated,highest conversion rates,–,–
"N[C@@H](Cc1c[nH]c2cccc([N+](=O)[O-])c12)C(=O)O [Example 4-NO2-L-Trp, 4-NO2-L-Trp]",–,–,–,not able to decompose,–
"N[C@@H](Cc1c[nH]c2ccc(F)cc12)C(=O)O [Example 5-F-Trp, 5-F-Trp]",successfully nitrated,nitrated,highest conversion rates,–,–
"Cc1ccc2[nH]cc(C[C@H](N)C(=O)O)c2c1 [Example 5-Me-Trp, 5-Me-Trp]",successfully nitrated,nitrated,highest conversion rates,–,highest nitration activity
"COc1ccc2[nH]cc(C[C@H](N)C(=O)O)c2c1 [Example 5-MeO-Trp, 5-MeO-Trp]",successfully nitrated,nitrated,–,–,–
"N[C@@H](Cc1c[nH]c2cc(F)ccc12)C(=O)O [Example 6-F-Trp, 6-F-Trp]",successfully nitrated,nitrated,–,–,–
"Cc1cccc2c(C[C@H](N)C(=O)O)c[nH]c12 [Example 7-Me-Trp, 7-Me-Trp]",successfully nitrated,nitrated,–,–,–
"N[C@@H](Cc1c[nH]c2ccccc12)C(=O)O [L-Trp, L-tryptophan]",–,–,–,produced indole,–
N[C@@H](Cc1c[nH]c2cccc([N+](=O)[O-])c12)C(=O)O [Nitrotrp],–,–,–,does not convert; also recorded: not observed,–
C[C@](N)(Cc1c[nH]c2ccccc12)C(=O)O [α-Me-Trp],successfully nitrated,nitrated,–,–,–
